This note sets out measurements from ChEMBL document CHEMBL1130622, “N-(2-(4-hydroxyphenyl)ethyl)-4-chlorocinnamide: a novel antagonist at the 1A/2B NMDA receptor subtype” (Bioorg Med Chem Lett, 1998).

pIC50: −log10 of the molar value.

Common to all, as to assay type: functional, Rattus norvegicus
The nature of assay [1]: Antagonistic activity towards NMDA receptor 1A/2A subtype was determined.
Assay [2] is described as follows: Antagonistic activity towards NMDA receptor 1A/2C subtype was determined.
A short description of assay [3]: Antagonistic activity towards NMDA receptor 1A/2B subtype was determined.

As for `O=C(/C=C/c1ccc(O)cc1)NCCc1ccc(O)cc1` [N-P-COUMAROYL TYRAMINE], the negative logarithm of the IC50 (pIC50) – broadly, −log10 of the IC50, conventionally taken in molar units – in assay [1] is under 3.52; in assay [2], 3.70; in assay [3], 4.68.

In the case of `O=C(/C=C/c1ccccc1)NCCc1ccc(O)cc1`, the negative-log IC50 (pIC50) in assay [1] is under 3.52; in assay [2], under 3.52; in assay [3] it was 6.17.

As for `O=C(/C=C/c1ccc(Cl)cc1)NCCc1cccc(O)c1`, the negative-log IC50 (pIC50) is under 3.52 in assay [1], 3.76 in assay [2] and 5.13 in assay [3].

For `O=C(/C=C/c1ccc(Cl)cc1)NCCc1ccc(Cl)cc1`, the pIC50 was 3.80 in assay [1], under 3.52 in assay [2] and under 3.52 in assay [3].

With `O=C(/C=C/c1ccc(Cl)cc1)NCCc1ccc(O)cc1`, the pIC50 in assay [1] was under 3.52; in assay [2], under 3.52; in assay [3], 6.77.

Turning to `O=C(/C=C/c1ccc(O)cc1)NCCc1ccc(Cl)cc1`, the pIC50 is under 3.52 in assay [1], under 3.52 in assay [2] and 6.48 in assay [3].

Take `N#C/C(=C\C(=O)NCCc1ccc(O)cc1)c1ccc(Cl)cc1`: the negative-log IC50 (pIC50) was under 3.52 in assay [1], under 3.52 in assay [2] and 5.05 in assay [3].

Regarding `O=C(/C=C/c1ccc(Cl)cc1)NCCc1ccccc1`, the pIC50 in assay [1], in assay [2] and in assay [3] was under 3.52 each time.

In the case of `N#C/C(=C\c1ccc(Cl)cc1)C(=O)NCCc1ccc(O)cc1`, the negative logarithm of the IC50 (pIC50) in assay [1] was 4.11; in assay [2] it was 3.98; in assay [3], 5.47.
